Experimental data as given in patent US9675563B2, “Method for adjunctive treatment of cancer metastasis by using lycogen” (ASIA-PACIFIC BIOTECH DEVELOPING, INC., priority 2015, dated 2017).

Assays:
Assay type in all cases: cell-based, human
HUVEC cells [1] = assay: In vitro angiogenesis assay (H2O2-induced tubeformation in matrigel); details: 5-FU alone, 6 hours after treatment
Procedure: (§1) The in vitro angiogenesis assay was a model test used for studying anti-angiogenic nutrient or drugs, and the assay was highly convenient and fast. […] H2O2 was used to induce tubeformation in matrigel to evaluate the effect of Lycogen on the index of angiogenesis. HUVEC cells were dissolved in 10% serum-containing culture media, and then HUVEC cells were seeded into matrigel pre-coated 24-well plates in a density of […] per well. Except for the control group HUVEC cells in all other groups were treated with solvent vehicle, 5-FU, 5-FU plus 10 μM Lycogen, 5-FU plus 30 μM Lycogen, and 5-FU plus 50 μM of Lycogen, respectively. Each assay under the same experimental condition was performed in duplicate and this experiment was repeated twice. Phase contrast photomicrographs were taken by a phase contrast microscope with 100× magnification at 6 hours after the treatment.

HUVEC cells [2] = assay: Cell migration analysis under the angiogenesis assay conditions; details: 5-FU alone
Procedure: as §1
In another example, the effect of Lycogen on cell migration was analyzed under the same conditions of the aforementioned angiogenesis analysis.

EA.hy926 cell line [3] = assay: EA.hy926 cell migration analysis (migration areas); details: 25 μg/mL 5-FU, 24 hours
Procedure: In another example, the effect of Lycogen on cell migration in human umbilical vein endothelial cell line (EA.hy926 cell line) was analyzed. The cell line was treated with different concentrations of Lycogen (0, 2, 5, and 10 μM) or 25 μg/mL 5-FU, and the EA.hy926 cell migration was analyzed 24 hours after treatments to calculate the migration areas.

EA.hy926 cell line [4] = assay: Cancer cell invasion assay (Matrigel, fluorescent microscope); details: 25 μg/mL 5-FU, 24 hours, compared to 0 μg/ml group
Procedure: In one embodiment, the EA.hy926 cell line was used to analyze the ability of Lycogen on inhibiting cancer cell invasion. EA.hy926 cell line was treated with various concentration of Lycogen (0, 2, 5, and 10 μM) or 25 μg/mL 5-FU. Twenty-four hours after treatment, the Matrigel was used to analyze the cell invasion, and fluorescent microscope was used to observe the cancer cell invasion.
Cells were cultured on the plate, which was covered by a semipermeable membrane, to mimic the condition of cell invasion in vivo. The basal membrane was interrupted in invasive tumor cell to invade adjacent tissue. The cell culture plate was scratched by a sterile tip or cotton thread to create an acellular space. The cell lines were treated with different treatments, and then the cell number inside the membrane was counted.

With `O=c1[nH]cc(F)c(=O)[nH]1` [5-FU] the cell tubeformation (HUVEC cells [1]) was “did inhibit”, the cell migration (HUVEC cells [2]) was “did inhibit” and the “cancer cell migration (migration areas)” value (EA.hy926 cell line [3]) was “had the ability of inhibiting cancer cell migration”. For the same compound, the invaded cell number (EA.hy926 cell line [4]) was “significantly decreased”.
